Experimental data taken from patent publication US20050245399A1, “Pyrazole derivatives as herbicidal compositions containing them” (ISHIHARA SANGYO KAISHA, LTD., priority 2004, published 2005).

These molecules were tested on corn (Zea mays L.), ZEAMX (assay: Test Example 2 post-emergence (foliage treatment) herbicidal activity, ZEAMX). Details: 63 g a.i./ha.
Type: in vivo
Procedure, shortened: (§1)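 A small sprayer delivered the diluted WP or EC formulation (500 L/ha water, 0.1% v/v spreader) over emerged seedlings in upland soil pots. Damage relative to untreated plants was graded visually from 0 to 100% three weeks or so later (days 20-23).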

SMILES	growth controlling degree, ZEAMX [%]
COc1c(Cl)cc(F)c(-c2nn(C)c(OC(F)F)c2Cl)c1NC(=O)CCc1ccccc1C [Compound 1-37]	70
COc1c(Cl)cc(F)c(-c2nn(C)c(OC(F)F)c2Cl)c1NCCc1cccc(C)c1 [Compound 1-50]	80

These molecules were tested on soybean (Glycine max Merr.): GLXMA (assay: Test Example 1 pre-emergence herbicidal activity, GLXMA). Details: Rate 63 g a.i./ha, visually observed 20th to 23rd day after application.
Type: in vivo
Procedure, shortened: (§2)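 Seeds go into pots of upland field soil; one day on, the diluted formulation (500 L/ha water) is sprayed pre-emergence. Effects are scored visually 20 to 23 days post-application as 0–100% growth control.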

SMILES	Pre-emergence Herbicidal Activity GLXMA (growth controlling degree) [%]
COc1c(Cl)cc(F)c(-c2nn(C)c(OC(F)F)c2Cl)c1NC(=O)CCc1ccccc1C [Compound 1-37]	0
COc1c(Cl)cc(F)c(-c2nn(C)c(OC(F)F)c2Cl)c1NCCc1cccc(C)c1 [Compound 1-50]	10

Each molecule was assayed on prickly sida (Sida spinosa L.): SEDSP (assay: Test Example 1 pre-emergence herbicidal activity, SIDSP). Details: Rate 63 g a.i./ha, visually observed 20th to 23rd day after application.
Type: in vivo
Procedure, shortened: as §2

SMILES	Pre-emergence Herbicidal Activity SIDSP (growth controlling degree) [%]
COc1c(Cl)cc(F)c(-c2nn(C)c(OC(F)F)c2Cl)c1NC(=O)CCc1ccccc1C [Compound 1-37]	95
COc1c(Cl)cc(F)c(-c2nn(C)c(OC(F)F)c2Cl)c1NCCc1cccc(C)c1 [Compound 1-50]	100

What follows are molecules tested on corn (Zea mays L.): ZEAMX (assay: Test Example 1 pre-emergence herbicidal activity, ZEAMX). Details: Rate 63 g a.i./ha, visually observed 20th to 23rd day after application.
Type: in vivo
Procedure, shortened: as §2

SMILES	Pre-emergence Herbicidal Activity ZEAMX (growth controlling degree) [%]
COc1c(Cl)cc(F)c(-c2nn(C)c(OC(F)F)c2Cl)c1NC(=O)CCc1ccccc1C [Compound 1-37]	0
COc1c(Cl)cc(F)c(-c2nn(C)c(OC(F)F)c2Cl)c1NCCc1cccc(C)c1 [Compound 1-50]	10

The molecules below were run on prickly sida (Sida spinosa L.), SIDSP (assay: Test Example 2 post-emergence (foliage treatment) herbicidal activity, SIDSP). Details: 63 g a.i./ha.
Type: in vivo
Procedure, shortened: as §1

SMILES	growth controlling degree, SIDSP [%]
COc1c(Cl)cc(F)c(-c2nn(C)c(OC(F)F)c2Cl)c1NC(=O)CCc1ccccc1C [Compound 1-37]	100
COc1c(Cl)cc(F)c(-c2nn(C)c(OC(F)F)c2Cl)c1NCCc1cccc(C)c1 [Compound 1-50]	100

What follows are molecules tested on green foxtail (Setaria viridis L.): SETVI (assay: Test Example 1 pre-emergence herbicidal activity, SETVI). Details: Rate 63 g a.i./ha, visually observed 20th to 23rd day after application.
Type: in vivo
Procedure, shortened: as §2

SMILES	Pre-emergence Herbicidal Activity SETVI (growth controlling degree) [%]
COc1c(Cl)cc(F)c(-c2nn(C)c(OC(F)F)c2Cl)c1NC(=O)CCc1ccccc1C [Compound 1-37]	80
COc1c(Cl)cc(F)c(-c2nn(C)c(OC(F)F)c2Cl)c1NCCc1cccc(C)c1 [Compound 1-50]	100

What follows are molecules tested on redroot pigweed (Amaranthus retroflexus L.): AMARE (assay: Test Example 1 pre-emergence herbicidal activity, AMARE). Details: Rate 63 g a.i./ha, visually observed 20th to 23rd day after application.
Type: in vivo
Procedure, shortened: as §2

SMILES	Pre-emergence Herbicidal Activity AMARE (growth controlling degree) [%]
COc1c(Cl)cc(F)c(-c2nn(C)c(OC(F)F)c2Cl)c1NC(=O)CCc1ccccc1C [Compound 1-37]	100
COc1c(Cl)cc(F)c(-c2nn(C)c(OC(F)F)c2Cl)c1NCCc1cccc(C)c1 [Compound 1-50]	100

The molecules below were run on velvetleaf (Abutilon theophrasti), ABUTH (assay: Test Example 2 post-emergence (foliage treatment) herbicidal activity, ABUTH). Details: 63 g a.i./ha.
Type: in vivo
Procedure, shortened: as §1

SMILES	growth controlling degree, ABUTH [%]
COc1c(Cl)cc(F)c(-c2nn(C)c(OC(F)F)c2Cl)c1NC(=O)CCc1ccccc1C [Compound 1-37]	100
COc1c(Cl)cc(F)c(-c2nn(C)c(OC(F)F)c2Cl)c1NCCc1cccc(C)c1 [Compound 1-50]	100

Each molecule was assayed on crabgrass (Digitaria sanguinalis L.): DIGSA (assay: Test Example 1 pre-emergence herbicidal activity, DIGSA). Details: Rate 63 g a.i./ha, visually observed 20th to 23rd day after application.
Type: in vivo
Procedure, shortened: as §2

SMILES	Pre-emergence Herbicidal Activity DIGSP (growth controlling degree) [%]
COc1c(Cl)cc(F)c(-c2nn(C)c(OC(F)F)c2Cl)c1NC(=O)CCc1ccccc1C [Compound 1-37]	100
COc1c(Cl)cc(F)c(-c2nn(C)c(OC(F)F)c2Cl)c1NCCc1cccc(C)c1 [Compound 1-50]	100

What follows are molecules tested on soybean (Glycine max Merr.), GLXMA (assay: Test Example 2 post-emergence (foliage treatment) herbicidal activity, GLXMA). Details: 63 g a.i./ha.
Type: in vivo
Procedure, shortened: as §1

SMILES	growth controlling degree, GLXMA [%]
COc1c(Cl)cc(F)c(-c2nn(C)c(OC(F)F)c2Cl)c1NC(=O)CCc1ccccc1C [Compound 1-37]	98
COc1c(Cl)cc(F)c(-c2nn(C)c(OC(F)F)c2Cl)c1NCCc1cccc(C)c1 [Compound 1-50]	95

Each molecule was assayed on velvetleaf (Abutilon theophrasti): ABUTH (assay: Test Example 1 pre-emergence herbicidal activity, ABUTH). Details: Rate 63 g a.i./ha, visually observed 20th to 23rd day after application.
Type: in vivo
Procedure, shortened: as §2

SMILES	Pre-emergence Herbicidal Activity ABUTH (growth controlling degree) [%]
COc1c(Cl)cc(F)c(-c2nn(C)c(OC(F)F)c2Cl)c1NC(=O)CCc1ccccc1C [Compound 1-37]	40
COc1c(Cl)cc(F)c(-c2nn(C)c(OC(F)F)c2Cl)c1NCCc1cccc(C)c1 [Compound 1-50]	100

The molecules below were run on rice (Oryza sativa L.): ORYSA (assay: Test Example 1 pre-emergence herbicidal activity, ORYSA). Details: Rate 63 g a.i./ha, visually observed 20th to 23rd day after application.
Type: in vivo
Procedure, shortened: as §2

SMILES	Pre-emergence Herbicidal Activity ORYSA (growth controlling degree) [%]
COc1c(Cl)cc(F)c(-c2nn(C)c(OC(F)F)c2Cl)c1NC(=O)CCc1ccccc1C [Compound 1-37]	20
COc1c(Cl)cc(F)c(-c2nn(C)c(OC(F)F)c2Cl)c1NCCc1cccc(C)c1 [Compound 1-50]	20

The molecules below were run on redroot pigweed (Amaranthus retroflexus L.), AMARE (assay: Test Example 2 post-emergence (foliage treatment) herbicidal activity, AMARE). Details: 63 g a.i./ha.
Type: in vivo
Description: Upland field soil was put into a 1/170,000 ha pot, and seeds of various plants were sown. Then, when the plants reached predetermined leaf stages {1. barnyardgrass (Echinochloa crus-galli L.), ECHCG: 1.1-2.1 leaf stage, 2. crabgrass (Digitaria sanguinalis L.), DIGSA: 1.0-2.0 leaf stage, 3. green foxtail (Setaria viridis L.), SETVI: 1.0-2.2 leaf stage, 4. redroot pigweed (Amaranthus retroflexus L.), AMARE: 0.1-1.5 leaf stage, 5. prickly sida (Sida spinosa L.), SIDSP: 0.1-0.6 leaf stage, 6. velvetleaf (Abutilon theophrasti), ABUTH: 0.1-0.6 leaf stage, 7. common cocklebur (Xanthium strumarium L.), XANST: 0.1 leaf stage, 8. rice (Oryza sativa L.), ORYSA; 1.0-2 leaf stage, 9. wheat (Triticum aestivum L.), TRZAX: 2.3-3.5 leaf stage, 10. corn (Zea mays L.), ZEAMXN 2.1-2.6 leaf stage, 11. soybean (Glycine max Merr.), GLXMA: primary leaf stage}, a wettable powder or emulsifiable concentrate having the compound of the present invention formulated in accordance with a usual formulation method, was weighed so that the active ingredient would be a predetermined amount, and diluted with water in an amount of 500 L/ha. To the diluted solution, 0.1% (v/v) of an agricultural spreader was added. The herbicide adjusted was applied by a small size sprayer for foliage treatment. On the 20th to 23rd day after the application of the herbicide, the growth of the respective plants was visually observed, and the herbicidal effects were evaluated by growth controlling degrees (%) ranging from 0 (equivalent to the untreated control) to 100 (complete kill), whereby the results shown in Table 5, were obtained. Compound Nos. in Table 5 correspond to Compound Nos. in Table 1 and 2 given hereinbefore.

SMILES	growth controlling degree, AMARE [%]
COc1c(Cl)cc(F)c(-c2nn(C)c(OC(F)F)c2Cl)c1NC(=O)CCc1ccccc1C [Compound 1-37]	100
COc1c(Cl)cc(F)c(-c2nn(C)c(OC(F)F)c2Cl)c1NCCc1cccc(C)c1 [Compound 1-50]	100

These molecules were tested on rice (Oryza sativa L.), ORYSA (assay: Test Example 2 post-emergence (foliage treatment) herbicidal activity, ORYSA). Details: 63 g a.i./ha.
Type: in vivo
Procedure, shortened: (§3)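 Sow in upland soil; grow to leaf stage (barnyardgrass 1.1-2.1, crabgrass 1.0-2.0, pigweed 0.1-1.5, rice 1.0-2); spray foliage at a fixed active ingredient rate in 500 L/ha water with 0.1% (v/v) spreader; rate growth control visually at 20-23 days on a 0-100% scale.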

SMILES	growth controlling degree, ORYSA [%]
COc1c(Cl)cc(F)c(-c2nn(C)c(OC(F)F)c2Cl)c1NC(=O)CCc1ccccc1C [Compound 1-37]	90
COc1c(Cl)cc(F)c(-c2nn(C)c(OC(F)F)c2Cl)c1NCCc1cccc(C)c1 [Compound 1-50]	95

The molecules below were run on barnyardgrass (Echinochloa crus-galli L.): ECHCG (assay: Test Example 1 pre-emergence herbicidal activity, ECHCG). Details: Rate 63 g a.i./ha, visually observed 20th to 23rd day after application.
Type: in vivo
Procedure, shortened: as §2

SMILES	Pre-emergence Herbicidal Activity ECHCG (growth controlling degree) [%]
COc1c(Cl)cc(F)c(-c2nn(C)c(OC(F)F)c2Cl)c1NC(=O)CCc1ccccc1C [Compound 1-37]	60
COc1c(Cl)cc(F)c(-c2nn(C)c(OC(F)F)c2Cl)c1NCCc1cccc(C)c1 [Compound 1-50]	70

These molecules were tested on crabgrass (Digitaria sanguinalis L.), DIGSA (assay: Test Example 2 post-emergence (foliage treatment) herbicidal activity, DIGSA). Details: 63 g a.i./ha.
Type: in vivo
Procedure, shortened: as §3

SMILES	growth controlling degree, DIGSP [%]
COc1c(Cl)cc(F)c(-c2nn(C)c(OC(F)F)c2Cl)c1NC(=O)CCc1ccccc1C [Compound 1-37]	80
COc1c(Cl)cc(F)c(-c2nn(C)c(OC(F)F)c2Cl)c1NCCc1cccc(C)c1 [Compound 1-50]	90

Each molecule was assayed on wheat (Triticum aestivum L.), TRZAX (assay: Test Example 2 post-emergence (foliage treatment) herbicidal activity, TRZAX). Details: 63 g a.i./ha.
Type: in vivo
Procedure, shortened: as §1

SMILES	growth controlling degree, TRZAX [%]
COc1c(Cl)cc(F)c(-c2nn(C)c(OC(F)F)c2Cl)c1NC(=O)CCc1ccccc1C [Compound 1-37]	50
COc1c(Cl)cc(F)c(-c2nn(C)c(OC(F)F)c2Cl)c1NCCc1cccc(C)c1 [Compound 1-50]	70

These molecules were tested on barnyardgrass (Echinochloa crus-galli L.), ECHCG (assay: Test Example 2 post-emergence (foliage treatment) herbicidal activity, ECHCG). Details: 63 g a.i./ha.
Type: in vivo
Procedure, shortened: as §3

SMILES	growth controlling degree, ECHCO [%]
COc1c(Cl)cc(F)c(-c2nn(C)c(OC(F)F)c2Cl)c1NC(=O)CCc1ccccc1C [Compound 1-37]	98
COc1c(Cl)cc(F)c(-c2nn(C)c(OC(F)F)c2Cl)c1NCCc1cccc(C)c1 [Compound 1-50]	100

The molecules below were run on wheat (Triticum aestivum L.): TRZAX (assay: Test Example 1 pre-emergence herbicidal activity, TRZAX). Details: Rate 63 g a.i./ha, visually observed 20th to 23rd day after application.
Type: in vivo
Procedure, shortened: as §2

SMILES	Pre-emergence Herbicidal Activity TRZAX (growth controlling degree) [%]
COc1c(Cl)cc(F)c(-c2nn(C)c(OC(F)F)c2Cl)c1NC(=O)CCc1ccccc1C [Compound 1-37]	30
COc1c(Cl)cc(F)c(-c2nn(C)c(OC(F)F)c2Cl)c1NCCc1cccc(C)c1 [Compound 1-50]	30
